Measurements from patent US20050209278A1, “Piperidinyl- and piperazinyl-sulfonylmethyl hydroxamic acids and their use as protease inhibitors” (priority 2002, published 2005).
Several values for one entry are separate records, joined by “and”; a condition that tells them apart may be missing. Equal values may be shown once.

How the values were obtained:
MMP-14 = target: T1, MMP-14 (Homo sapiens, UniProt P50281); experiment: In vitro MMP inhibition, Ki determination (fluorogenic substrate II); type: biochemical; conditions: value outside parentheses; read-out: MMP-14 Ki
T1 construct: The catalytic domain enzyme was expressed in E. coli inclusion bodies, solubilized in urea; made in house
In short: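 E. coli-expressed, refolded MMP-14 catalytic domain, activated with APMA or trypsin, in 100 mM Tris-HCl pH 7.5, 100 mM NaCl, 10 mM CaCl2, 0.05% Brij-type detergent. Apparent Ki by Morrison-equation regression of velocity vs inhibitor and enzyme concentration.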

MMP-9 = target: T2, MMP-9 (Homo sapiens, UniProt P14780); experiment: as above; type: biochemical; conditions: value outside parentheses
T2 construct: made in house; host or cells: MMP-9-transfected HT1080 cells (spent media)
In short: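 HT1080-derived MMP-9, activated with APMA, trypsin or MMP-3, incubated 1 hr at room temperature with inhibitor and 4 μM fluorogenic substrate II (at or below Km) in pH 7.5 Tris/NaCl/CaCl2 buffer; ex 330/em 420 nm. Ki from Morrison-equation regression, without substrate correction.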

T2 sequence (P14780 107-707 limits assumed): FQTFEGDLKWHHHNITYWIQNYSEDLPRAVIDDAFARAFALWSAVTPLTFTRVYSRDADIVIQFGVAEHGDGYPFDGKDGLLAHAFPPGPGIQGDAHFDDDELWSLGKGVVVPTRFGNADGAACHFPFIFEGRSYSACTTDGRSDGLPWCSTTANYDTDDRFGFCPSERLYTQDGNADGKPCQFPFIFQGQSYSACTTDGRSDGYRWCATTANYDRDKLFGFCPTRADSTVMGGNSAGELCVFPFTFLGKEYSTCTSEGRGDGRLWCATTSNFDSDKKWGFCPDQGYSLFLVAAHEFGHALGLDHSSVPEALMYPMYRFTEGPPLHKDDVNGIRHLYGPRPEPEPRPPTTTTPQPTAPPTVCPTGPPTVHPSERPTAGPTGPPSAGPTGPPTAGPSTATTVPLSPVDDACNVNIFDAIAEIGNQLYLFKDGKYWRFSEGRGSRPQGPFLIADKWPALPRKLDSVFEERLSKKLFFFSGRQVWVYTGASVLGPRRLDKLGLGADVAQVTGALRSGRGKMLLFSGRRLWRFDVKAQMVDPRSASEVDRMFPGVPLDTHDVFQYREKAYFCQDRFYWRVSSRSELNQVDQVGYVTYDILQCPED

Ki (MMP-14)	Ki (MMP-9)	SMILES
> 10000 nM	29.2 nM	O=C(NO)C1(S(=O)(=O)N2CCC(c3ccc(OC(F)(F)C(F)(F)F)cc3)CC2)CCOCC1 [Example 349]
3170 nM	1.34 nM	O=C(NO)C1(S(=O)(=O)N2CCN(c3ccc(CCCC(F)(F)F)c(F)c3)CC2)CCOCC1 [Example 389]
5770 nM	1.19 nM	CCCCc1cnc(N2CCN(S(=O)(=O)C3(C(=O)NO)CCN(CCOC)CC3)CC2)nc1 [Example 334]
931 nM	1.52 nM	O=C(NO)C1(S(=O)(=O)N2CCC(c3ccc(-c4cccs4)cn3)CC2)CCOCC1 [Example 394]
1370 nM	35.6 nM	O=C(NO)C1(S(=O)(=O)N2CCN(c3ccc(-c4ccc(OC(F)(F)F)cc4)cc3)CC2)CCOCC1 [Example 327]
> 10000 nM	923 nM	O=C(NO)C1(S(=O)(=O)N2CCN(c3ccc(-c4cccc(OC(F)(F)F)c4)cn3)CC2)CCOCC1 [Example 319]
216 nM	6.28 nM	O=C(NO)C1(S(=O)(=O)N2CCN(c3ncc(-c4ccc(-c5ccccc5)cc4)s3)CC2)CCOCC1 [Example 360]
1490 nM	1380 nM	COc1ccccc1-c1ccc(N2CCN(S(=O)(=O)C3(C(=O)NO)CCOCC3)CC2)nc1 [Example 318]
1310 nM	22 nM	CCc1ccc(C2CCN(S(=O)(=O)C3(C(=O)NO)CCN(CCOC)CC3)CC2)s1 [Example 314]
> 10000 nM	> 10000 nM	O=C(NO)C1(S(=O)(=O)N2CCN(c3cnn(CCCC(F)(F)F)c(=O)c3)CC2)CCOCC1 [Example 321]
3930 nM	1.33 nM	O=C(NO)C1(S(=O)(=O)N2CCN(c3ccc(CCCC(F)(F)F)cc3)CC2)CCOCC1 [Example 320]
4470 nM	1.21 nM	O=C(NO)C1(S(=O)(=O)N2CCC(c3ccc(OCC(F)(F)C(F)F)cc3)CC2)CCN(C2CC2)CC1 [Example 350]
1610 nM	0.792 nM	O=C(NO)C1(S(=O)(=O)N2CCC(c3ccc(OC(F)(F)C(F)F)cc3)CC2)CCOCC1 [Example 337]
867 nM	6.4 nM	N#Cc1cccc(-c2cnc(N3CCN(S(=O)(=O)C4(C(=O)NO)CCOCC4)CC3)s2)c1 [Example 384]
341 nM	9.1 nM	Cc1cccc(-c2cnc(N3CCN(S(=O)(=O)C4(C(=O)NO)CCOCC4)CC3)s2)c1 [Example 370]
4300 nM	3.77 nM	CCN1CCC(C(=O)NO)(S(=O)(=O)N2CCN(c3ccc(-c4ccccc4)c(F)c3)CC2)CC1 [Example 341]
497 nM and 460 nM	36.1 nM and 32.9 nM	O=C(NO)C1(S(=O)(=O)N2CCN(c3ncc(/C=C/c4ccccc4)s3)CC2)CCOCC1 [Example 361]
4140 nM	786 nM	CCCCOc1cccc(N2CCN(S(=O)(=O)C3(C(=O)NO)CCOCC3)CC2)c1 [Example 354]

SMILES	Ki (MMP-14)	Ki (MMP-9)
O=C(NO)C1(S(=O)(=O)N2CCC(COCC(F)(F)C(F)(F)C(F)(F)C(F)F)CC2)CCOCC1 [Example 378]	> 10000 nM	219 nM
